Source: publication PMC5863483, “Low HLA binding of diabetes-associated CD8+ T-cell epitopes is increased by post translational modifications” (BMC Immunology, 2018)
Read-outs that look alike come from different tables or passages of the source. Where no end group is shown, it is not given here.

Target: HLA-A*02:01 (Homo sapiens, UniProt P04439, D140Y/D185E/D98H/E176V/E277Q/G131W/G231S/I119V/I121R/I166T/I218V/L300P/L318F/N151K/N90K/P208A/P217A/Q86G/Q94H/R138H/R169H/T345S)
Assay: HLA-peptide competition binding assay, A*02:01
[1] = unmodified (WT) insulin peptide, competition binding assay, a dash indicates IC50 >40,000 nM, read-out: A*02:01 binding (IC50 nM) WT
[2] = read-out: A*02:01 binding (IC50 nM) WT
[3] = read-out: IC50 nM, target assay A*02:01
[4] = post-translationally modified insulin peptide, competition binding assay, a dash indicates IC50 >40,000 nM, read-out: A*02:01 binding (IC50 nM) Modified

| Sequence | IC50 [3] [nM] | further results |
| --- | --- | --- |
| NQHLCGSHL | – | IC50 [1]: > 40000 nM |
| NQHLCGSHLV | – | IC50 [2]: 7990 nM |
| PKTRREAED [PKTRREAED] | – | IC50 [1]: > 40000 nM |
| PKTRREAEDL | – | IC50 [1]: > 40000 nM |
| QHLCGSHLV | – | IC50 [1]: > 40000 nM; IC50 (unmodified (wild type) insulin-derived peptide, radiolabeled ligand competition, purified MHC, two-day incubation, three or more independent experiments, read-out: A*02:01 binding, WT): > 40000 nM |
| QHLCGSHLVE | – | IC50 [1]: > 40000 nM |
| QKRGIVEQC | – | IC50 [1]: > 40000 nM |
| QLARQQVHV [reference compound] | > 40000 | – |
| REAEDLQVG | – | IC50 [1]: > 40000 nM |
| REAEDLQVGQ | – | IC50 [2]: 23700 nM |
| RGYFYTPKT | – | IC50 [4]: > 40000 nM |
| RGYYYTPKT | – | IC50: 8810 nM |
| RLGPVARTRV [reference compound] | 581 | – |
| RLLCALTSL [reference compound] | 91 | – |
| RLLPLLALLA | – | IC50 [2]: 11 nM |
| RLLPLLALLAL [RLLPLLALLAL, reference compound] | 109 | – |
| RLLPLWAAL [RLLPLWAAL, reference compound] | 52 | – |
| RLLPLWAALPL [reference compound] | 5.4 | – |
| RLLYPDYQI [reference compound] | 124 | – |
| RLQREWHTL [reference compound] | 1230 | – |
| RMMEYGTTMV [reference compound] | 709 | – |
| RREAEDLQV | – | IC50 [1]: > 40000 nM |
| RREAEDLQVG | – | IC50 [1]: > 40000 nM |

| Sequence | IC50 [3] [nM] | further results |
| --- | --- | --- |
| SHLVEALYL | – | IC50 [2]: 257 nM |
| SHLVEALYLV [reference compound] | – | IC50: 2150 nM |
| SISVLISAL [SISVLISAL, reference compound] | 1550 | – |
| SLAAGVKLL [reference compound] | 3690 | – |
| SLASLLPHV [reference compound] | 9.1 | – |
| SLEEEIRFL [reference compound] | 472 | – |
| SLFEGVDFYT [reference compound] | 51 | – |
| SLQKRGIVE [SLQKRGIVE] | – | IC50 [2]: 5950 nM |
| SLQKRGIVEQ [reference compound] | > 40000 | – |
| SLSPLQAEL [reference compound] | 101 | – |
| SLTAISTTL [reference compound] | 242 | – |
| SLTTISTTL [reference compound] | – | IC50: 237 nM |
| SLYHVYEVNL [reference compound] | 209 | – |
| SLYQLENYC [reference compound] | 16900 | – |
| SMCRFSPLTL [reference compound] | 1150 | – |
| SMPQGTFPV [reference compound] | 631 | – |
| STVASRLGPV [reference compound] | 25100 | – |
| STVASWLGPV [reference compound] | 9230 | – |
| SVASLLPHV [reference compound] | 1760 | – |
| TIADFWQMV [reference compound] | 4690 | – |
| TMHSLTIQM [reference compound] | 104 | – |
| TPKTRREAE | – | IC50 [1]: > 40000 nM |
| TPKTRREAED [TPKTRREAED] | – | IC50 [1]: > 40000 nM |

| Sequence | IC50 [3] [nM] | further results |
| --- | --- | --- |
| TRREAEDLQ | – | IC50 [1]: > 40000 nM |
| TRREAEDLQV | – | IC50 [1]: > 40000 nM |
| TVASRLGPV [reference compound] | 7700 | – |
| VAANIVLTV [reference compound] | – | IC50: 320 nM |
| VCGERGFFY | – | IC50 [1]: > 40000 nM |
| VCGERGYFY | – | IC50 [4]: > 40000 nM |
| VCGERGYFYT | – | IC50 [4]: > 40000 nM |
| VDEHLCGSH | – | IC50 [4]: > 40000 nM |
| VDEHLCGSHL | – | IC50 [4]: > 40000 nM |
| VEALYLVCG | – | IC50 [2]: 14300 nM |
| VEALYLVCGE | – | IC50 [2]: 8870 nM |
| VIVMLTPLV [reference compound] | 2120 | – |
| VLFGLGFAI [reference compound] | 149 | – |
| VLHELFGMDI [reference compound] | 287 | – |
| VLNSLASLL [reference compound] | 4970 | – |
| VLNSVASLL [reference compound] | 1140 | – |
| VLVEGSTRI [reference compound] | 17200 | – |
| VMNILLQYV [reference compound] | 2020 | – |
| VMNILLQYVV [reference compound] | 2310 | – |
| VNQHLCGSH | – | IC50 [1]: > 40000 nM |
| VNQHLCGSHL | – | IC50 [2]: 6640 nM |
| VVTGVLVYL [reference compound] | 9 | – |
| WGPDPAAA [reference compound] | > 40000 | – |
